Where no end group is shown, it is not given here.

Data on ten sequences can be found in publication PMC2876253, “MHC I Stabilizing Potential of Computer-Designed Octapeptides” (Journal of Biomedicine and Biotechnology, 2010).

For the first assay, the target named is T1, H-2K^b (Mus musculus, UniProt P01901).
T1 construct: For accumulation of peptide-free MHC I proteins at the cell surface, the cells were cultured for 16 hours at 26°C; endogenous in cells; host or cells: RMA-S cells (TAP-deficient mouse T lymphoma)
T1 sequence (P01901 22-369): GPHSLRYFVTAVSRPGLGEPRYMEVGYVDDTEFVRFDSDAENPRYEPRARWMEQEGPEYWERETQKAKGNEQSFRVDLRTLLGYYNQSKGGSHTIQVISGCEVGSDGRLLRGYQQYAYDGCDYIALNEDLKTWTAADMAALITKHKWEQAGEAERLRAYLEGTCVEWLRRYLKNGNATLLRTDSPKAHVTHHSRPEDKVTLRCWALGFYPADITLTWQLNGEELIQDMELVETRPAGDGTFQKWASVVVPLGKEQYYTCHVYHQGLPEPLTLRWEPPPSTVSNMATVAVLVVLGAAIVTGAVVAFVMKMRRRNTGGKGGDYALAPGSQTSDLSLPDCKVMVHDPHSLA
T1 sequence (P01887 21-119 partner): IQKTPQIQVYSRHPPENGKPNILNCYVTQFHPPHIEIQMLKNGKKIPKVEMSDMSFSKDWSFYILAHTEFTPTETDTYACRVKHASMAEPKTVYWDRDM
Nature of the assay: MHC I stabilization assay with TAP-deficient RMA-S cells. It is filed as cell-based. As to conditions: peptide concentration for 50% of maximal MHC I stabilization (half-maximal MFI), 100 to 5.6 × 10^−4 μg/mL, 1 h room temperature then 1 h 37°C, flow cytometry with antibody B8.24.3, standard deviation in brackets, N = 3, n.d.: not detectable, SD, read-out: Experimental EC50. How it is done: The stabilization assay was performed as described by Brock et al. using TAP-deficient RMA-S cells (mutagenized Rauscher virus-induced T lymphoma cells of mouse origin). The cells were cultured in DMEM (Gibco-BRL, Karlsruhe, Germany) with 10% FCS (Sigma-Aldrich, Steinheim, Germany) at 37°C with 8% CO2. For accumulation of peptide-free MHC I proteins at the cell surface, the cells were cultured for 16 hours at 26°C. […] The stabilized MHC I proteins were visualized and quantified by flow cytometry using the H-2K^b specific monoclonal antibody B8.24.3 [23] purified in the laboratory from hybridoma culture supernatant by protein G affinity chromatography (Pierce, Darmstadt, Germany) and an R-Phycoerythrin-conjugated anti-mouse antibody (Dianova GmbH, Hamburg, Germany) as secondary reagent. The stabilizing effect of the peptides was determined as mean fluorescence intensity (MFI). The EC50 value is the peptide concentration that is required for half-maximal stabilization of the MHC I molecules at the cell surfaces (half-maximal MFI). All peptides were custom-synthesized by EMC microcollections GmbH (Tübingen, Germany).
(In general: A flow cytometer gives signals particle by particle.)
Turning to FHWDYRGL [Peptide 3], the EC50 came out at 25 µM.
Same read-out and setting: with FRYPYKTL [Peptide 1] the figure was 24 µM; with WDFKFDSV [Peptide 7], 9 µM.
Take WKFIFDPV [Peptide 8]: the EC50 is 0.4 µM.
For WRFIYFNL [Peptide 6], the EC50 stood at 3.6 µM.
Same read-out and setting: with WRFKYDNL [Peptide 4] the figure was 7 µM; with WRFVYWRL [Peptide 5], 8 µM.

Staying with this assay, now noted: peptide concentration for 50% of maximal MHC I stabilization (half-maximal MFI), 100 to 5.6 × 10^−4 μg/mL, 1 h room temperature then 1 h 37°C, flow cytometry with antibody B8.24.3, standard deviation in brackets, N = 3, n.d.: not detectable, read-out: Experimental EC50.
Take FHHAHRTV [sequence 9]: the EC50 is 9 µM.
Still for that read-out and setting: with FRYIYHTL [Seq. 2] the figure was 20 µM.

Another assay deals with T1, H-2K^b.
Test: not given
More on the design: method as in PMID 1606619. Conditions: known nonstabilizing octapeptide; cited from earlier work.
Regarding LSPFPFDL, the “H-2K^b stabilizing effect in words” value is listed as “nonstabilizing”.

What is called EC50 is the concentration giving half of the maximal effect.
